# Literature values, collected in patent US12594435B2, “Interstitial photodynamic therapy” (Simphotek, Inc., priority 2020, dated 2026).
# Like-named read-outs stand apart in the source and are kept apart here.
# Columns and labels:
# [1] = tested on: tumors in mice; conditions: for Threshold [^1O2]dose: superficial PDT
# [2] = tested on: Human prostate; conditions: Davidson et.al., 2009
# [3] = for β, k4/k2 / ξ photokinetic parameter / σ, k1/(k7[A]): Table 6, Zhu et. al. 2015, Ong et al 2018
# [4] = tested on: experimental tumours; conditions: Mice, Shafirstein et. al., 2018
# [5] = tested on: experimental tumours; conditions: Rabbits, Shafirstein et. al., 2018
# [6] = Zhu et. al., 2015, labeled [^1O2]rx in the publication
# [7] = surface PDT, Sheng et. al., 2019
# [8] = I-PDT with light dose as dose metric
# [9] = simulation parameter used in Dosie simulations, Examples 3 and 4
# [10] = vascular PDT, Sheng et. al., 2020
compound,measurement,setting,value
2-(1-Hexyloxyethyl)-2-devinyl pyropheophorbide [HPPH],Threshold [^1O2]dose,"[1]; Penjweini et. al., 2016","0.98 ± 0.11 (Penjweini et. al., mM"
same,Threshold PDT-dose,"[1]; surface PDT, Penjweini et. al., 2016","52.62 ± 14.9 (Penjweini et. al., μM J/cm^2"
CC[C@H]1c2cc3[n-]c4c(c3C)C(=O)[C@H](C(=O)OC)c4c3nc(cc4[n-]c(cc(n2)[C@@H]1C)c(C(C)=O)c4C)[C@@H](C)[C@@H]3CCC(=O)O.[Pd+2] [Tookad],Threshold Light Dose,[2],">23 (Davidson et.al., 2009) J/cm^2"
same,"β, k4/k2",[3],Tookad: 11.9 μM
same,ξ photokinetic parameter,[3],Tookad: 122 × 10^−3 cm^2mW^−1s^−1
same,"σ, k1/(k7[A])",[3],Tookad: 2.6 × 10^−5 μM^−1
Oc1cccc(-c2c3nc(c(-c4cccc(O)c4)c4ccc([nH]4)c(-c4cccc(O)c4)c4nc(c(-c5cccc(O)c5)c5ccc2[nH]5)CC4)C=C3)c1 [mTHPC],"ε, PS extinction coefficient",[3]; 650 nm,mTHPC (650 nm): 0.048 cm^−1μM^−1
same,"β, k4/k2",[3],mTHPC: 8.7 μM
same,ξ photokinetic parameter,[3],mTHPC: 30.0 × 10^−3 cm^2mW^−1s^−1
same,"σ, k1/(k7[A])",[3],mTHPC: 2.97 × 10^−5 μM^−1
Photofrin,Threshold [^1O2]dose,"[1]; Qiu et. al., 2016","> 1.0 (Qiu et. al., 2016) mM"
same,Threshold [^1O2]dose,[1]; [6],"0.56 ± 0.26 (Zhu et. al., 2015) mM"
same,Threshold Light Dose,[1]; [7],"Approx. 100 (Sheng et. al., 2019) J/cm^2"
same,Threshold PDT-dose,[1]; [7],"439 (Sheng et. al., 2019) μM J/cm^2"
same,Threshold Fluence Rate φT,[4]; [8],"8.4 (Shafirstein et. al., 2018) mW/cm^2"
same,Threshold Light Dose,[4]; I-PDT,"≥45 (Shafirstein et. al., 2018) J/cm^2"
same,Threshold Fluence Rate φT,[5]; [8],"16.5 (Shafirstein et. al., 2018) mW/cm^2"
same,Threshold Light Dose,[5]; I-PDT,"≥45 (Shafirstein et. al., 2018) J/cm^2"
same,"ε, PS extinction coefficient",[3]; 630 nm,Photofrin (630 nm): 0.0035 cm^−1μM^−1
same,"β, k4/k2",[3],Photofrin: 11.9 μM
same,ξ photokinetic parameter,[3],Photofrin: 3.7 × 10^−3 cm^2mW^−1s^−1
same,"σ, k1/(k7[A])",[3],Photofrin: 7.6 × 10^−5 μM^−1
same,β,[3]; [9],11.9
same,"δ, low concentration correction",[3]; [9],33
same,ξ,[3]; [9],3.7E-03
same,σ,[3]; [9],7.6E-05
benzoporphyrin derivative monoacid ring A [BPD],Threshold [^1O2]dose,[1]; Kim et. al. 2017,0.98 ± 012 (Kim et. al. 2017) mM
same,Threshold [^1O2]dose,[1]; [6],"0.72 ± 0.21 (Zhu et. al., 2015) mM"
same,Threshold PDT-dose,"[1]; surface PDT, Kim et. al., 2017","58 ± 12 (Kim et. al., 2017) μM J/cm^2"
same,Threshold Light Dose,[1]; [10],"Approx. 40 (vascular, Sheng et. J/cm^2"
same,Threshold PDT-dose,[1]; [10],"7.5 (vascular, Sheng et. al., μM J/cm^2"
same,"ε, PS extinction coefficient",[3]; 690 nm,BPD (690 nm): 0.0783 cm^−1μM^−1
same,"β, k4/k2",[3],BPD: 11.9 μM
same,ξ photokinetic parameter,[3],BPD: 51.0 × 10^−3 cm^2mW^−1s^−1
same,"σ, k1/(k7[A])",[3],BPD: 1.7 × 10^−5 μM^−1
